Holding throughout (test): KINOMEscan competition binding
What all share (details): compound 10.0 µM

Test [1] concerns ABL1 (human), P00519 [F317I].
The test system of test [2] is ABL1 (human), P00519 [F317L].
The target in the next test is ALK (human) (UniProt Q9UM73).
In the next test the target is CAMK2A (human) (UniProt Q9UQM7).
The target of the next test is CAMK2B (human) (UniProt Q13554).
Another test concerns the target CAMK2D (human) (UniProt Q13557).
The target in the next test is CAMK2G (human) (UniProt Q13555).
In another test the target is CLK1 (human) (UniProt P49759).
The target of a further test is CLK4 (human) (UniProt Q9HAZ1).
Another test concerns the target DCLK1 (human) (UniProt O15075).
The next test deals with DCLK2 (human) (UniProt Q8N568).
The target of another test is DCLK3 (human) (UniProt Q9C098).
The target in a further test is DYRK1B (human) (UniProt Q9Y463).
For the next test, the target named is FLT3 (human) (UniProt P36888).
The test system of test [3] is FLT3 (human), P36888 [D835H].
The test system of test [4] is FLT3 (human), P36888 [D835Y].
Test [5] has as its system FLT3 (human), P36888 [ITD].
Test [6] relates to FLT3 (human), P36888 [K663Q].
In test [7] the test system is FLT3 (human), P36888 [N841I].
A further test deals with FRK (human) (UniProt P42685).
Chain of FRK (human) (P42685 whole entry, looked up): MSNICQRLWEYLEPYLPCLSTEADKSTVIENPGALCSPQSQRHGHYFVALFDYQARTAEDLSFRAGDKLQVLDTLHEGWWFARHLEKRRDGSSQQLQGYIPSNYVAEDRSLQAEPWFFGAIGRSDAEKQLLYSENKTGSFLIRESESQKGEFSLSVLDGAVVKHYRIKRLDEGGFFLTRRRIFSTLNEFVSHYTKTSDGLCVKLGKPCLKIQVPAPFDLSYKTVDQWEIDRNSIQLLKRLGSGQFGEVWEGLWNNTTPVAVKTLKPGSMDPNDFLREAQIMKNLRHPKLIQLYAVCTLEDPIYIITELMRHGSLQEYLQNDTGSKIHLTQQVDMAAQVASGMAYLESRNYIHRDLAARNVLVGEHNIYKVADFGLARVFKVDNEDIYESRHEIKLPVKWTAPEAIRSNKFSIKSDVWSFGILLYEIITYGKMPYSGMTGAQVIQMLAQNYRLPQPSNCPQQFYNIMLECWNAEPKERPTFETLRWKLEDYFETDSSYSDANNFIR
The target in another test is GAK (human) (UniProt O14976).
Chain of GAK (human) (O14976 whole entry, looked up): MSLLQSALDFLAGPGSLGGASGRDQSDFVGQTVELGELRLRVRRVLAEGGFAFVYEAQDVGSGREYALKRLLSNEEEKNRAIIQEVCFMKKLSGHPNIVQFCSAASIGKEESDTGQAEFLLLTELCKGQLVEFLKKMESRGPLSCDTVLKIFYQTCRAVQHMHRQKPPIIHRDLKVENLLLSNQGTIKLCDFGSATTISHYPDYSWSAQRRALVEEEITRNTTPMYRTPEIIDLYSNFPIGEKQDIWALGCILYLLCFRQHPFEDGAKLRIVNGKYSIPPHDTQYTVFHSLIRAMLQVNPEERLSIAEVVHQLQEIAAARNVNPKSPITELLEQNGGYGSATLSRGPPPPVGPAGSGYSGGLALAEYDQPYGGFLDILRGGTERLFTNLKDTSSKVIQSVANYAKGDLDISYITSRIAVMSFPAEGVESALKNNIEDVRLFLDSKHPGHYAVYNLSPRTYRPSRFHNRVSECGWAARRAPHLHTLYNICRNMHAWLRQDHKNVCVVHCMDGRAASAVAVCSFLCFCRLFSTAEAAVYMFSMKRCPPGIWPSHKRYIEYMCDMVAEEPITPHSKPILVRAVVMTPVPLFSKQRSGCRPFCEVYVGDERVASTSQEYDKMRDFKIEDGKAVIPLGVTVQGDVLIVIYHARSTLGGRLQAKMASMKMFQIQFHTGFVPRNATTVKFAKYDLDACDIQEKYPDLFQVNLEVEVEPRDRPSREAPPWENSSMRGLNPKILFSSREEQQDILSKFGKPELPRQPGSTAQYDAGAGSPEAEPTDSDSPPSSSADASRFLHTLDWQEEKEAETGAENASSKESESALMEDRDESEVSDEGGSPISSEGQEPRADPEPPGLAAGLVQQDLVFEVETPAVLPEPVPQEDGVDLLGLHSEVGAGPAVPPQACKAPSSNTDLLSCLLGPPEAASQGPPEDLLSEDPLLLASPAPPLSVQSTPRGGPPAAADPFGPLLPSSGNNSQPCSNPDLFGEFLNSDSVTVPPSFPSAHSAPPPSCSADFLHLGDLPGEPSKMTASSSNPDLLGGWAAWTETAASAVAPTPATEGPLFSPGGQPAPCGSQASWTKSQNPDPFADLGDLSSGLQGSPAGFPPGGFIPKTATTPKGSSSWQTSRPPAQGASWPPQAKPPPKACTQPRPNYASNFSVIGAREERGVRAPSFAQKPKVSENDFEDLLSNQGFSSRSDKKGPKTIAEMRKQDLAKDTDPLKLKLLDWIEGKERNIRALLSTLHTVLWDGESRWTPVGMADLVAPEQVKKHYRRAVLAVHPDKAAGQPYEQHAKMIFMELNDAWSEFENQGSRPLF
Another test concerns the target MAPK7 (human) (UniProt Q13164).
The target in the next test is MKNK2 (human) (UniProt Q9HBH9).
The next test addresses MYLK4 (human) (UniProt Q86YV6).
The target in the next test is PHKG1 (human) (UniProt Q16816).
In the next test the target is PTK6 (human) (UniProt Q13882).
The target in a further test is TNK1 (human) (UniProt Q13470).
Another test addresses TNK2 (human) (UniProt Q07912).
In the next test the target is TTK (human) (UniProt P33981).
Chain of TTK (human) (P33981 whole entry, looked up): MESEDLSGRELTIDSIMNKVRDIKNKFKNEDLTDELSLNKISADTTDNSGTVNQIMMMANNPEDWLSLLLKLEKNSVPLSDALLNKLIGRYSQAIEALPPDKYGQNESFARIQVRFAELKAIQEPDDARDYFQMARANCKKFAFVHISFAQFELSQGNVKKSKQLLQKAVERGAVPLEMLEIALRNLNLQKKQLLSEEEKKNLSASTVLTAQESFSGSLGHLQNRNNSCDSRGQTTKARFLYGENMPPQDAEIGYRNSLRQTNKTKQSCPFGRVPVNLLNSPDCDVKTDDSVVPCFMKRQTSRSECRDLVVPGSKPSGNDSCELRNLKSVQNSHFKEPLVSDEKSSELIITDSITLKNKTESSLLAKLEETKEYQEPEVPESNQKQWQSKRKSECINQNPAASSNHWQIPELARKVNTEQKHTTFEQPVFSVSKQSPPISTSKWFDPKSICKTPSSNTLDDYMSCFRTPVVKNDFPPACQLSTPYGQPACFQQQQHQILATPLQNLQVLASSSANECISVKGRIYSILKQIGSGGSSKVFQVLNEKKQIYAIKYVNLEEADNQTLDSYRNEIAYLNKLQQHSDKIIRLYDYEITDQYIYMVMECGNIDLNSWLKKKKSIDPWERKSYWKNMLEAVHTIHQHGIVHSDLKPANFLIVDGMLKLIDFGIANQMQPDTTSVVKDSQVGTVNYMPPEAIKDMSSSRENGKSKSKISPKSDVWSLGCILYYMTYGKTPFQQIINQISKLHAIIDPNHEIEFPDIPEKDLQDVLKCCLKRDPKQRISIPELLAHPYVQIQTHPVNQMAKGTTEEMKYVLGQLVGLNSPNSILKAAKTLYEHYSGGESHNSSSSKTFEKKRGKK
The target of a further test is ULK2 (human) (UniProt Q8IYT8).
Another test addresses DDR1 (human) (UniProt Q08345).
The target of a further test is KIT (human) (UniProt P10721).
Test [8] deals with KIT (human), P10721 [V559D].
Another test concerns the target PDGFRB (human) (UniProt P09619).
The target in the next test is STK10 (human) (UniProt O94804).
Chain of STK10 (human) (O94804 whole entry, looked up): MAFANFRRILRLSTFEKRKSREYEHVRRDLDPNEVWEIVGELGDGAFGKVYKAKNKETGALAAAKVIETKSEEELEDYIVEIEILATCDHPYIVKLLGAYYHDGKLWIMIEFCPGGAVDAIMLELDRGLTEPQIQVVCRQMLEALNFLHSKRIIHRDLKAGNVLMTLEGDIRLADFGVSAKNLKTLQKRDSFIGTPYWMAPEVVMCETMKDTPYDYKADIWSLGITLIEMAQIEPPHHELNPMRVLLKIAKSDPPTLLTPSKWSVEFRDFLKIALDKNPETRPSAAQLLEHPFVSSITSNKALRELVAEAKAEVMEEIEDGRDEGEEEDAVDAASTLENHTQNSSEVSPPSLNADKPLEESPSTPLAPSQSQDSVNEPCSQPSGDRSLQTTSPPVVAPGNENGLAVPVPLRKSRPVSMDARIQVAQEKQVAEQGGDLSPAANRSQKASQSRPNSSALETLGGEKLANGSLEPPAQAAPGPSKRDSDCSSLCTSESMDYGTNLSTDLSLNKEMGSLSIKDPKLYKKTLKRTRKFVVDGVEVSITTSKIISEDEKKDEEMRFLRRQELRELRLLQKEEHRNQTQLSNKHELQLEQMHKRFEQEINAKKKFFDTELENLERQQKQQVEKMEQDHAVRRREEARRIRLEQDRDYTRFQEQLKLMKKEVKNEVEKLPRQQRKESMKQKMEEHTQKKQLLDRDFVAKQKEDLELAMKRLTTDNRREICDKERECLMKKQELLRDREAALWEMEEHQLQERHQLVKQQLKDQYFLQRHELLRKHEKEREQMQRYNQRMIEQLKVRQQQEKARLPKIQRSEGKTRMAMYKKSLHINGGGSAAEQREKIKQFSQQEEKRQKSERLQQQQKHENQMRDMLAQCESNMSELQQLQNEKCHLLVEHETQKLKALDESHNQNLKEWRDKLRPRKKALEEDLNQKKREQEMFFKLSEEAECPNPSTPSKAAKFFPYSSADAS
In a further test the target is TIE1 (human) (UniProt P35590).
The target in a further test is DAPK3 (human) (UniProt O43293).
Test [9] has as its system EGFR (human), P00533 [747-751 del / S ins].
Test [10] deals with EGFR (human), P00533 [A750P; 747-749 del].
The subject of test [11] is EGFR (human), P00533 [G719C; 746-750 del].
For test [12], the system named is EGFR (human), P00533 [P753S; 747-752 del].
The next test deals with PLK1 (human) (UniProt P53350).
Another test concerns the target PLK3 (human) (UniProt Q9H4B4).
Another test has as its target PTK2 (human) (UniProt Q05397).
A further test has as its target PTK2B (human) (UniProt Q14289).
The next test concerns the target RPS6KA6 KD2 (human) (UniProt Q9UK32).
In a further test the target is SIK1 (human) (UniProt P57059).
For a further test, the target named is SLK (human) (UniProt Q9H2G2).

Chain of ABL1 (human), P00519 [F317L] (P00519 whole entry F317L, looked up): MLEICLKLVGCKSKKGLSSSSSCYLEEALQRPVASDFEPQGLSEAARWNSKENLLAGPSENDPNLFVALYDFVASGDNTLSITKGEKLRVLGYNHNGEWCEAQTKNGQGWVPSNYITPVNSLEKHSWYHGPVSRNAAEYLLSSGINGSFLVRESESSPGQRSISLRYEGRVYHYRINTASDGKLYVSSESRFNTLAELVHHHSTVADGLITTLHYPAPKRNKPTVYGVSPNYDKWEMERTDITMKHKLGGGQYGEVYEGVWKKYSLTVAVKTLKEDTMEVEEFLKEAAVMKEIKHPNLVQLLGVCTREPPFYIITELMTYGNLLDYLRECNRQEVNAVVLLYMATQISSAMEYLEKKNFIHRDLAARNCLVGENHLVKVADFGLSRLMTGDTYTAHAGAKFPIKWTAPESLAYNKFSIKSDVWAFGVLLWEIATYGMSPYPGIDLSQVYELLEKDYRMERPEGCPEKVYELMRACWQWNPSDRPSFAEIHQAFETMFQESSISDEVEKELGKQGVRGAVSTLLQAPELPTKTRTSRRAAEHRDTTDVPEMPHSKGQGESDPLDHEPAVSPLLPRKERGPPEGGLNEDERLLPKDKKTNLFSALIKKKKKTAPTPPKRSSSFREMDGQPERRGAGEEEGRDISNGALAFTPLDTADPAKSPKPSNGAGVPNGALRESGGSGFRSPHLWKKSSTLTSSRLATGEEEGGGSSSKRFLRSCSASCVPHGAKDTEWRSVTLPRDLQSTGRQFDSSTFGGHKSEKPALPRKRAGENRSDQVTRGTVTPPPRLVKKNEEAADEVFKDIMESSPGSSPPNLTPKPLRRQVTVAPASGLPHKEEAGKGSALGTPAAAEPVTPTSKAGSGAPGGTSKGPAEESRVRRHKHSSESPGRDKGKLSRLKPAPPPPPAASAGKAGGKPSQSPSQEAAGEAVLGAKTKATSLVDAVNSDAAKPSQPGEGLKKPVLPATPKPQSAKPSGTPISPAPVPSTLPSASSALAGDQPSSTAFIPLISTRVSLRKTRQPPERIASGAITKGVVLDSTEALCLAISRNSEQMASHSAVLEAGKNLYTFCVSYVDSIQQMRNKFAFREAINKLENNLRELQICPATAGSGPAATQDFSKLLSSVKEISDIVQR
Chain of ABL1 (human), P00519 [F317I] (P00519 whole entry F317I, looked up): as the sequence (P00519 whole entry F317L, looked up) above, with L317I counted along it

In the case of `COc1cc(N2CCN(C)CC2)ccc1Nc1ncc2c(n1)N(C(C)C)c1ccccc1C(=O)N2`, the kinase still bound, per cent of control was 15% in [1]; 25% in test [2]; 30% on ALK (human); 5.4% on CAMK2A (human); 21% on CAMK2B (human); 7.7% at CAMK2D (human). Also, the kinase still bound, per cent of control came to 25% on CAMK2G (human); 27% at CLK1 (human); 20% at CLK4 (human); 5.4% at DCLK1 (human); 17% at DCLK2 (human); 11% on DCLK3 (human). Also, the kinase still bound, per cent of control on DYRK1B (human) turned out to be 12%; on FLT3 (human), 13%; in test [3], 18%; in [4], 2%; in test [5] it was 6.5%; in test [6], 13%. Besides, the kinase still bound, per cent of control in test [7] stood at 0.35%; at FRK (human) it was 26%; at GAK (human) it was 2%; on MAPK7 (human), 30%; on MKNK2 (human) it was 0.8%; at MYLK4 (human), 5.8%. For the same compound, the kinase still bound, per cent of control on PHKG1 (human) worked out at 9.2%; on PTK6 (human) it was 13%; on TNK1 (human), 10%; at TNK2 (human) it was 8.4%; on TTK (human), 1%; at ULK2 (human), 27%.

Turning to `NS(=O)(=O)c1ccc(-c2ccc(/C=C3/C(=O)NN(c4ccccc4)C3=O)o2)cc1`, the kinase still bound, per cent of control at DDR1 (human) stood at 34%; at KIT (human), 25%; in test [8], 29%; on PDGFRB (human) it was 33%; at STK10 (human), 27%; on TIE1 (human) it was 25%.

On to `COc1cc(N2CCC(N3CCN(C)CC3)CC2)ccc1Nc1ncc2c(n1)N(C1CCCC1)C(C)CC(=O)N2` (centres undefined), for which the kinase still bound, per cent of control in test [2] turned out to be 29%; on DAPK3 (human), 28%; in test [9], 32%; in [10], 33%; in [11] it was 30%; in test [12], 32%. The kinase still bound, per cent of control at FRK (human) is 16%; at GAK (human) it was 1.2%; on PLK1 (human), 0%; at PLK3 (human) it was 26%; at PTK2 (human) it was 7.1%; on PTK2B (human), 23%. The kinase still bound, per cent of control at RPS6KA6 KD2 (human) turned out to be 12%; at SIK1 (human) it was 27%; at SLK (human) it was 7.2%; at STK10 (human), 19%; on TNK2 (human) it was 11%; at TTK (human), 12%.

The values are drawn from the kinase profiling compilation of Christmann-Franck et al. (2016).
